This note sets out measurements from PMC2847038 (Hippocampus, 2010).

This assay has as its target T1, fatty acid amide hydrolase (FAAH) (Rattus norvegicus, UniProt P97612).
T1 sequence (P97612 1-579): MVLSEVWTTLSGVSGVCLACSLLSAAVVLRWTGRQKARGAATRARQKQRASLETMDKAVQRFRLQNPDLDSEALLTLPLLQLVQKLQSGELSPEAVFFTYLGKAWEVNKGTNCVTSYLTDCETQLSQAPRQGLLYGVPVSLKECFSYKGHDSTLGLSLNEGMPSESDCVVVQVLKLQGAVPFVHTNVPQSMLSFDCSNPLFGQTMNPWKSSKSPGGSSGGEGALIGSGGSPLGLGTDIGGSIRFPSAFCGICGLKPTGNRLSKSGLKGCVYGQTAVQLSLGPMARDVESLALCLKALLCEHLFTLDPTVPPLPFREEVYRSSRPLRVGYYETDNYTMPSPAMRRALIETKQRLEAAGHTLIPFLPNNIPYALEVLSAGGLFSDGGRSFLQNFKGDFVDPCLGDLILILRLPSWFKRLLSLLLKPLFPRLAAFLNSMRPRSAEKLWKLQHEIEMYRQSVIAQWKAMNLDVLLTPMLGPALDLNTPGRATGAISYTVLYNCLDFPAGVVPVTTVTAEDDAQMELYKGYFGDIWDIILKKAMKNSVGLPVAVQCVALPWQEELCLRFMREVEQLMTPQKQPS
The assay is described as follows: Fatty acid amide hydrolase activity assay. The settings on record: hippocampus membranes. The class given is biochemical, Sprague-Dawley rats.

Take `CCCCC/C=C\C/C=C\C/C=C\C/C=C\CCCC(=O)NCCO` [anandamide, N-arachidonylethanolamide]: the “Vmax (maximal hydrolytic activity of FAAH)” value reads like this: (CON animals) 619.4 +/- 56.9 pmol/mg protein; (VEx animals) 556.7 +/- 99.4 pmol/mg protein.
